Measurements taken from the supplement of paper PMC10307832.

Legend:
Assay in all cases: relative viability (nuclei count vs DMSO), 5 days (fraction); higher = more cells survive
NCI-H1666 = tested on: NCI-H1666
In short: (§1)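 Medians of duplicate plates are given as relative viability. That measure is the nuclei count in treated wells divided by the count in vehicle wells. Counts were taken on 4× images of lung cancer cell lines in 1536-well plates, 5 days after pin-tool dosing the day after seeding with one drug alone or a fixed anchor-drug dose plus five library-drug doses (not always all listed) in √10 steps.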

NCI-H1395 = tested on: NCI-H1395
In short: as §1

NCI-H520 = tested on: NCI-H520
In short: as §1

CAL-12T = tested on: CAL-12T
In short: as §1

HCC-827 = tested on: HCC-827
In short: as §1

NCI-H3122 = tested on: NCI-H3122
In short: as §1

NCI-H358 = tested on: NCI-H358
In short: as §1

LU99A = tested on: LU99A
In short: as §1

NCI-H2126 = tested on: NCI-H2126
In short: as §1

LXF-289 = tested on: LXF-289
In short: as §1

LCLC-103H = tested on: LCLC-103H
In short: as §1

## CCNC(=O)c1noc(-c2cc(C(C)C)c(O)cc2O)c1-c1ccc(CN2CCOCC2)cc1 [Luminespib] + Nc1nc2[nH]cc(CCc3ccc(C(=O)N[C@@H](CCC(=O)O)C(=O)O)cc3)c2c(=O)[nH]1 [Pemetrexed] (partner 0.2 µM)
NCI-H1666; first compound 0.02 µM
  relative viability: 0.908
NCI-H1666; first compound 0.06325 µM
  relative viability: 0.833
NCI-H1666; first compound 0.2 µM
  relative viability: 0.911
NCI-H1395; first compound 0.002 µM
  relative viability: 0.875
NCI-H1395; first compound 0.006325 µM
  relative viability: 0.812
NCI-H1395; first compound 0.02 µM
  relative viability: 0.699
NCI-H1395; first compound 0.06325 µM
  relative viability: 0.299
NCI-H1395; first compound 0.2 µM
  relative viability: 0.353
NCI-H520; first compound 0.002 µM
  relative viability: 0.691
NCI-H520; first compound 0.006325 µM
  relative viability: 0.699
NCI-H520; first compound 0.02 µM
  relative viability: 0.792
NCI-H520; first compound 0.06325 µM
  relative viability: 0.135
NCI-H520; first compound 0.2 µM
  relative viability: 0.13
CAL-12T; first compound 0.002 µM
  relative viability: 1.23
CAL-12T; first compound 0.006325 µM
  relative viability: 0.988
CAL-12T; first compound 0.02 µM
  relative viability: 0.906
CAL-12T; first compound 0.06325 µM
  relative viability: 0.146
CAL-12T; first compound 0.2 µM
  relative viability: 0.124
HCC-827; first compound 0.002 µM
  relative viability: 0.22
HCC-827; first compound 0.006325 µM
  relative viability: 0.27
HCC-827; first compound 0.02 µM
  relative viability: 0.236
HCC-827; first compound 0.06325 µM
  relative viability: 0.159
HCC-827; first compound 0.2 µM
  relative viability: 0.158
NCI-H3122; first compound 0.002 µM
  relative viability: 0.203
NCI-H3122; first compound 0.006325 µM
  relative viability: 0.182
NCI-H3122; first compound 0.02 µM
  relative viability: 0.184
NCI-H3122; first compound 0.06325 µM
  relative viability: 0.135
NCI-H3122; first compound 0.2 µM
  relative viability: 0.111
NCI-H358; first compound 0.002 µM
  relative viability: 0.186
NCI-H358; first compound 0.006325 µM
  relative viability: 0.16
NCI-H358; first compound 0.02 µM
  relative viability: 0.167
NCI-H358; first compound 0.06325 µM
  relative viability: 0.147
NCI-H358; first compound 0.2 µM
  relative viability: 0.078
LU99A; first compound 0.002 µM
  relative viability: 0.192
LU99A; first compound 0.006325 µM
  relative viability: 0.198
LU99A; first compound 0.02 µM
  relative viability: 0.177
LU99A; first compound 0.06325 µM
  relative viability: 0.168
LU99A; first compound 0.2 µM
  relative viability: 0.127
NCI-H2126; first compound 0.002 µM
  relative viability: 0.705
NCI-H2126; first compound 0.006325 µM
  relative viability: 0.626
NCI-H2126; first compound 0.06325 µM
  relative viability: 0.479
NCI-H2126; first compound 0.2 µM
  relative viability: 0.181
LXF-289; first compound 0.002 µM
  relative viability: 0.91
LXF-289; first compound 0.006325 µM
  relative viability: 0.915
LXF-289; first compound 0.02 µM
  relative viability: 1.09
LXF-289; first compound 0.06325 µM
  relative viability: 0.333
LXF-289; first compound 0.2 µM
  relative viability: 0.136
LCLC-103H; first compound 0.002 µM
  relative viability: 0.441
LCLC-103H; first compound 0.006325 µM
  relative viability: 0.445
LCLC-103H; first compound 0.02 µM
  relative viability: 0.535
LCLC-103H; first compound 0.06325 µM
  relative viability: 0.486
LCLC-103H; first compound 0.2 µM
  relative viability: 0.472
